Assay results as given in patent publication US20260373283A1, “LIPID NANOPARTICLES AND METHODS OF USING THE SAME FOR TREATING CELL PROLIFERATIVE DISEASES AND DISORDERS” (Northwestern University, priority 2022, published 2026).

How the values were obtained:
CT-2A glioma [1] = test: survival with Stupp treatment (RT plus TMZ); format: in vivo, mouse; settings: RT+TMZ (3 Gy×3; TMZ 50 mg/kg×3 i.p.); control 27.5 days
Experimental: FIG. 15. B-LNP treatment improves antitumor effects of RT plus concomitant adjuvant TMZ in GBM-bearing mice. Survival curves of C57 mice received intracranial implantation of 5×10^4 CT-2A cells and two administrations of saline, B-LNP/diABZI (0.25 mg/kg diABZI), or a combination of free diABZI and therapeutic antibodies (αPD-L1+αCD47) (referred to as cocktails) through implanted cannula. Selected groups of mice also received RT (3 Gy×3) plus TMZ through intraperitoneal injection (50 mg/kg×3). n=7-10 mice per group. **, p<0.01; determined by Log-rank test for groups with proportional hazards and Renyi statistics for groups with crossing hazards. p values were adjusted by Bonferroni correction.
In vivo B-LNP/diABZI combined with Stupp treatment. C57BL/6 mice with intracranially implanted CT-2A (5×10^4 cells per mouse) were randomly grouped and received a daily dose of brain-focused irradiation at 3 Gy and TMZ at 50 mg per kg intraperitoneally for three consecutive days starting on the seventh day after tumor cell implantation. Certain groups of mice also received B-LNP/diABZI (0.25 mg diABZI per kg) or a combination of free diABZI and therapeutic antibodies (αPD-L1+αCD47) on the ninth and thirteenth day after tumor implantation through intracranially implanted cannula. All mice were followed for their survival following outlined endpoint protocols.

T cells = test: cytotoxicity to T cells by Annexin V staining; format: cell-based, mouse; settings: 200 nM, 48 h
Experimental: (§1) BMDM, bone marrow-derived macrophage. […] FIG. 10E, Cytotoxicity of diABZI to T cells was tested by Annexin V staining using flow cytometry 48 h after treatment with diABZI at 200 nM.
(§2) In vitro analysis of diABZI effects on TAMC and T cell. In vitro generated TAMCs (1×10^6 cells/well) in 6-well plate were treated with diABZI at 200 nM. After 6 h of treatment, cells were washed and collected for RNA isolation using the RNEasy Plus Mini Kit (Qiagen). Total RNA was quantified by Nanodrop (Thermo Scientific), and cDNA was synthesized using the iScript cDNA synthesis kit (Bio-Rad). Gene expression was analyzed by quantitative PCR analysis (Bio-Rad). Alternatively, flow cytometric analysis was performed 24 h after treatment. To determine the cytotoxicity of diABZI to T cells, T cells were isolated using mouse T cell isolation kit (STEMCELL Technologies) and seeded at 2×10^5 cells/well in 96-well U bottom plates with the addition of Dynabeads mouse T cell activator CD3/CD28 (Fisher) and IL-2 (PeproTech) at 50 U/ml. Cells were treated with diABZI at 200 nM for 48 h and collected for annexin V assay (BioLegend) using flow cytometry.

TAMCs [2] = test: pro-inflammatory gene expression in TAMCs by qPCR; format: cell-based, mouse; settings: diABZI 200 nM, 6 h
Experimental: as §2

[3] = tested on: CD8+ T cells in CT-2A tumors; test: T cell infiltration to brain tumors after systemic delivery; format: in vivo, mouse; settings: i.v. 2.5 mg/kg diABZI with fractionated RT
Experimental: FIG. 16. Systemic nanoparticle delivery of diABZI enhances T cell infiltration to brain tumors. C57 mice received intracranial implantation of 7.5×10^4 CT-2A cells, RT (3 Gy×3), and two administrations of saline, free diABZI, or P-LNP/diABZI (2.5 mg/kg diABZI) through intravenous injections. Freshly dissected brains were analyzed by flow cytometry for T cell infiltration. Data are represented as mean±SEM; n=5. *, p<0.05; **, p<0.01; determined by determined by one-way ANOVA with Tukey's multiple comparisons test.
In vivo nanoparticle treatment through systemic delivery. C57BL/6 mice with intracranially implanted CT-2A (7.5×10^4 cells per mouse) were randomly grouped and treated with saline or P-LNP/diABZI (2.5 mg diABZI per kg) through intravenous administration on the ninth, fourteenth, and nineteenth day after tumor implantation. Selected groups of mice also received brain-focused radiotherapy for three consecutive days starting on the sixth day post-tumor implantation. […] Tumor burden was analyzed by hematoxylin and eosin (H&E) staining. Therapeutic effects of P-LNP/diABZI was similarly evaluated in mice implanted with PF8 cells (7.5×10^4 cells per mouse) and received RT and intravenous administrations of saline or P-LNP/diABZI (2.5 mg diABZI per kg) on the eighth and thirteenth day after tumor implantation.

CT-2A glioma [4] = test: survival, CT-2A-bearing mice, systemic delivery with RT; format: in vivo, mouse; settings: i.v. 2.5 mg/kg diABZI with fractionated RT
Experimental: FIGS. 6A-6F. Systemic nanoparticle delivery of diABZI potentiates anti-glioma effects of RT. FIGS. 6A-6E, C57 mice received intracranial implantation of 7.5×10^4 CT-2A cells and three administrations of saline, free diABZI, or P-LNP/diABZI (2.5 mg/kg diABZI) through intravenous injections. Selected groups of mice received RT (3 Gy×3) as monotherapy or combination therapy. FIG. 6A, Survival curves of CT-2A-bearing C57 mice received different treatments. n=6-7 mice per group. Survival curves were compared using Log-rank test for those with proportional hazards and Renyi statistics for those with crossing hazards with p values adjusted by Bonferroni correction. […] Tumor burden in control and LTS mice were evaluated through H&E staining. FIG. 6C, 100 d post-rechallenge, freshly dissected brains from LTS, age-matched tumor-bearing mice, and age-matched non-tumor control mice were analyzed by flow cytometry for immune composition and CD8^+ T cell phenotypes. Data are represented as mean±SEM; n=5. *, p<0.05; **, p<0.01; determined by Student's t-test. […] FIG. 6D, Histology of the brains was evaluated by H. E. staining. […] FIG. 6E, Freshly dissected brains were analyzed by flow cytometry for immune composition, TAMC, and CD8^+ T cell phenotypes. Data are represented as mean±SEM; n=5. **, p<0.01; ***, p<0.001; ****, p<0.0001; determined by Student's t-test. […]

TAMCs [5] = test: ARG1, CD206, CD86 expression in TAMCs by flow cytometry; format: cell-based, mouse; settings: 24 h post-treatment
Experimental: as §1, §2

Row | SMILES | median survival (CT-2A glioma [1]) [days] | cytotoxicity to T cells (T cells) | expression of pro-inflammatory genes in TAMCs (type I IFNs, CCL5, CXCL10) (TAMCs [2]) | CD8+ T cell tumor infiltration [3] | animal survival in CT-2A glioma model (CT-2A glioma [4]) | ARG1 and CD206 in TAMCs (TAMCs [5]) | CD86 in TAMCs (TAMCs [5])
1 | Cn1nnc2c(C(N)=O)ncn2c1=O [TMZ, temozolomide] | 36 | – | – | – | – | – | –
2 | CCn1nc(C)cc1C(=O)Nc1nc2cc(C(N)=O)cc(OC)c2n1C/C=C/Cn1c(NC(=O)c2cc(C)nn2CC)nc2cc(C(N)=O)cc(OCCCN3CCOCC3)c21 [diABZI] | – | causes cytotoxicity to T cells | dramatically increased expression of pro-inflammatory genes in TAMCs | not free drugs, led to a dramatically enhanced CD8^+ T cell tumor infiltration | not free drugs, led to a dramatically enhanced CD8^+ T cell tumor infiltration (FIG. 16) and animal survival | reduced levels of immunosuppressive factors ARG1 and CD206 | higher levels of activation factor CD86
